Source: patent publication US6300317A, “Self-assembling polynucleotide delivery system” (The Regents of the University of California, priority 1995, dated 2001)
Where two headings read alike, the source gives them in different places.

Experiments:
calf thymus DNA [1] = assay: Ethidium bromide displacement assay, binding of bis-acridines to double-stranded DNA; conditions: computed from ethidium bromide displacement (IC50), noncooperative competitive binding model; read-out: Dissociation Constants of the Bis-acridines from Calf Thymus DNA
Procedure: The affinity of the bis-acridines for calf thymus DNA was calculated from the displacement of ethidium bromide from double stranded nucleic acids (Nielsen, supra). Ethidium displacement was monitored by the decrease of the ethidium bromide fluorescence (ex.=540 nm, em.=610 nm) that occurs when it is released from DNA. The association constants of the bis-acridines relative to ethidium bromide are calculated from their IC50. In this study, spermidine bis-acridine trihydrochloride (SBA.cndot.3HCl) synthesized as described (Nielsen, supra), was used as the reference compound. As a result of the loss of one of its three positive charges, a slight but significant decrease in affinity is observed when the N^4 amino group of spermidine bis-acridine is engaged in an amide bond with the targeting carbohydrate in compound 21 (Gal-bA.cndot.2 HCl). However, we predict an increase in affinity when spermidine bis-acridine is linked to the highly positively charged NLS peptide SEQ ID NO:1. G. Karup et al., Int J Peptide Protein Res (1988) 32:331-343.

calf thymus DNA [2] = conditions: constant used to compute the bis-acridine binding constants; read-out: intrinsic dissociation constant for ethidium bromide; cited from earlier work

| SMILES | Kd (calf thymus DNA [1]) | Kd (calf thymus DNA [2]) |
| --- | --- | --- |
| O=C(CCCCCS[C@@H]1O[C@H](CO)[C@H](O)[C@H](O)[C@H]1O)NCCCC[C@H](NC(=O)CCCCCS[C@@H]1O[C@H](CO)[C@H](O)[C@H](O)[C@H]1O)C(=O)N[C@@H](CCCCNC(=O)CCCCCS[C@@H]1O[C@H](CO)[C@H](O)[C@H](O)[C@H]1O)C(=O)N(CCCCNc1c2ccccc2nc2ccccc12)CCCNc1c2ccccc2nc2ccccc12 [Gal3 Lys2 -bA] | 5400 nM | – |
| c1ccc2c(NCCCCNCCCNc3c4ccccc4nc4ccccc34)c3ccccc3nc2c1 [SBA · 3HCl, N,N'-bis-(9-acridinyl)-4-aza-1,8-diaminooctane] | 24 nM | – |
| CC[n+]1c(-c2ccccc2)c2cc(N)ccc2c2ccc(N)cc21 [ethidium bromide] | – | 5.3 µM |
